Results from patent US10030047B2 (Hoffmann-La Roche Inc., priority 2015, dated 2018).

These molecules were tested on A. baumannii strain ATCC17978 (assay: 50% growth inhibitory concentration (IC50) determination, Iso-Sensitest broth). Details: Acinetobacter baumannii; A. baumannii ATCC17978; Iso-Sensitest medium; OD 600 nm over 16 h; read-out: IC50 ATCC17978.
Assay type: cell-based
Experimental: The in vitro antimicrobial activity of the compounds was alternatively determined according to the following procedure:
The assay used a 10-points Iso-Sensitest broth medium to measure quantitatively the in vitro activity of the compounds against A. baumannii ATCC 17978.
Stock compounds in DMSO were serially twofold diluted (e.g. range from 50 to 0.097 μM final concentration) in 384 wells microtiter plates and inoculated with 49 μl the bacterial suspension in Iso-Sensitest medium to have a final cell concentration of ˜5×10^(5) CFU/ml in a final volume/well of 50 ul/well. Microtiter plates were incubated at 35±2° C.
Bacterial cell growth was determined with the measurement of optical density at λ=600 nm each 20 minutes over a time course of 16 h.
Growth inhibition was calculated during the logarithmic growth of the bacterial cells with determination of the concentration inhibiting 50% (IC50) and 90% (IC90) of the growth.
Tables 3, 4 and 5 provide the 50% growth inhibitory concentrations (IC50) in micromoles per liter of the compounds of present invention obtained against the A. baumannii strain ATCC17978.

Structure (SMILES) | IC50 [nM]
CN1C(=O)[C@H](CCCCN)NC(=O)[C@H](CCCN)NCc2ccccc2Sc2c(Cl)cc(-c3cccnc3)cc2CNC(=O)[C@@H]1Cc1c[nH]c2ccccc12 [Example 142, (12S,15S,18S)-15-(4-Amino-butyl)-18-(3-amino-propyl)-4-chloro-12-(1H-indol-3-ylmethyl)-13-methyl-6-pyridin-3-yl-2-thia-10,13,16,19-tetraaza-tricyclo[19.4.0.0*3,8*]pentacosa-1(25),3,5,7,21,23-hexaene-11,14,17-trione] | < 400
CN1C(=O)[C@H](CCCCN)NC(=O)[C@H](CCCN)NCc2ccccc2Sc2c(Cl)cc(-c3ccncc3)cc2CNC(=O)[C@@H]1Cc1c[nH]c2ccccc12 [Example 143, (12S,15S,18S)-15-(4-Amino-butyl)-18-(3-amino-propyl)-4-chloro-12-(1H-indol-3-ylmethyl)-13-methyl-6-pyridin-4-yl-2-thia-10,13,16,19-tetraaza-tricyclo[19.4.0.0*3,8*]pentacosa-1(25),3,5,7,21,23-hexaene-11,14,17-trione] | < 400
CN1C(=O)[C@H](CCCCN)NC(=O)[C@H](CCCN)NCc2ccccc2Sc2c(Cl)cc(Br)cc2CNC(=O)[C@@H]1Cc1c[nH]c2ccccc12 [Example 151, (12S,15S,18S)-15-(4-Amino-butyl)-18-(3-amino-propyl)-6-bromo-4-chloro-12-(1H-indol-3-ylmethyl)-13-methyl-2-thia-10,13,16,19-tetraaza-tricyclo[19.4.0.0*3,8*]pentacosa-1(25),3,5,7,21,23-hexaene-11,14,17-trione] | 200
CN1C(=O)[C@H](CCCCN)NC(=O)[C@H](CCCN)NCc2ccccc2Sc2c(Cl)ncc(Cl)c2CNC(=O)[C@@H]1Cc1c[nH]c2ccccc12 [Example 152] | < 390
CN1C(=O)[C@H](CCCCN)NC(=O)[C@H](CCCN)NCc2ccccc2Sc2cnc(Cl)cc2CNC(=O)[C@@H]1Cc1c[nH]c2ccccc12 [Example 153] | < 390
CN1C(=O)[C@H](CCCCN)NC(=O)[C@H](CCC(N)=O)NCc2ccccc2Sc2c(cc(-c3ccccc3)cc2C(F)(F)F)CNC(=O)[C@@H]1Cc1c[nH]c2ccccc12 [Example 155, 3-[(11S,14S,17S)-14-(4-Amino-butyl)-17-(1H-indol-3-ylmethyl)-16-methyl-12,15,18-trioxo-23-phenyl-25-trifluoromethyl-2-thia-10,13,16,19-tetraaza-tricyclo[19.4.0.0*3,8*]pentacosa-1(25),3,5,7,21,23-hexaen-11-yl]-propionamide] | 2700
CN1C(=O)[C@H](CCCCN)NC(=O)[C@H](CCCN)NCc2ccccc2Sc2c(Cl)cncc2CNC(=O)[C@@H]1Cc1c[nH]c2ccccc12 [Example 158] | < 390
CN1C(=O)[C@H](CCCCN)NC(=O)[C@H](CCCN)NCc2cccnc2Sc2cnc(Cl)cc2CNC(=O)[C@@H]1Cc1c[nH]c2ccccc12 [Example 159, (7S,10S,13S)— 13-((1H-Indol-3-yl)methyl)-10-(4-aminobutyl)-7-(3-aminopropyl)-18-chloro-12-methyl-6,7,9,10,12,13,15,16-octahydrodipyrido[2,3-b:4′,3′-p][1,5,8,11,14]thiatetraazacycloheptadecine-8,11,14(5H)-trione] | < 390
CN1C(=O)[C@H](CCC(N)=O)NC(=O)[C@H](CCCN)NCc2ccccc2Sc2c(cc(-c3ccccc3)cc2C(F)(F)F)CNC(=O)[C@@H]1Cc1c[nH]c2ccccc12 [Example 161, 3-[(11S,14S,17S)-11-(3-Amino-propyl)-17-(1H-indol-3-ylmethyl)-16-methyl-12,15,18-trioxo-23-phenyl-25-trifluoromethyl-2-thia-10,13,16,19-tetraaza-tricyclo[19.4.0.0*3,8*]pentacosa-1(25),3,5,7,21,23-hexaen-14-yl]-propionamide] | 6800
